Measurements published in ChEMBL document CHEMBL1806411, “Opioid δ₁ receptor antagonist 7-benzylidenenaltrexone as an effective resistance reverser for chloroquine-resistant Plasmodium chabaudi” (Bioorg Med Chem Lett, 2011).
Active and inactive are the calls of the source. The rule behind the calls is not given here.

Experiments:
Type in all cases: functional, organism-based
[1] = system: Plasmodium chabaudi; assay: Antimalarial activity against chloroquine-resistant Plasmodium chabaudi infected in mouse assessed as parasitemia at 10 mg/kg, po administered for 3 consecutive days; design: dose 10 mg/kg
[2] = system: Plasmodium chabaudi; assay: Reversal of chloroquine-resistance in Plasmodium chabaudi infected in mouse at 10 mg/kg, po coadministered with chloroquine 3 mg/kg, iv administered for 3 consecutive days measured on day 4
[3] = system: Plasmodium chabaudi; assay: Reversal of chloroquine-resistance in Plasmodium chabaudi infected in mouse at 20 mg/kg, po coadministered with chloroquine 3 mg/kg, iv administered for 3 consecutive days measured on day 4

For `O=C1CC[C@@]2(O)[C@H]3Cc4ccc(O)c5c4[C@@]2(CCN3CC2CC2)[C@H]1O5`, the Activity [1] was “inactive” and the Activity [2] was “Active”.

In the case of `Oc1ccc2c3c1O[C@H]1c4[nH]c5ccccc5c4C[C@@]4(O)[C@@H](C2)N(CC2CC2)CC[C@]314`, the Activity [1] is reported as “inactive” and the Activity [2] is reported as “Active”.

In the case of `COc1ccc(CCN(C)CCCC(C#N)(c2ccc(OC)c(OC)c2)C(C)C)cc1OC` (stereo not drawn), the Activity [3] is reported as “Active”.

With `Oc1ccc2c3c1O[C@H]1c4[nH]c5c(c4C[C@@]4(O)[C@@H](C2)N(CC2CC2)CC[C@]314)C[C@@]1(O)[C@H]2Cc3ccc(O)c4c3[C@@]1(CCN2CC1CC1)[C@H]5O4` the Activity [1] was “inactive” and the Activity [2] was “Active”.

`CCN(CC)CCCC(C)Nc1ccnc2cc(Cl)ccc12` (stereo not drawn) was tested, and the Activity [1] was “inactive” and the Activity [2] was “inactive”.

`O=C1/C(=C/c2ccccc2)C[C@@]2(O)[C@H]3Cc4ccc(O)c5c4[C@@]2(CCN3CC2CC2)[C@H]1O5` was tested, and the Activity [1] was “inactive” and the Activity [2] was “Active”.

`Oc1ccc2c3c1O[C@H]1c4oc5ccccc5c4C[C@@]4(O)[C@@H](C2)N(CC2CC2)CC[C@]314` was tested, and the Activity [1] was “Active” and the Activity [2] was “Active”.
